# According to patent US12529101B2, “Methods and reagents for characterizing genomic editing, clonal expansion, and associated applications” (TwinStrand Biosciences, Inc., priority 2018, dated 2026):
# Tests used:
# [1] = tested on: Tg.rasH2 mice; assay: Duplex Sequencing of mutation induction and mutation spectrum in lung, spleen and blood; assay type: in vivo, mouse
# Description: (§1) In this example, the impact of urethane is examined in different mouse tissue types (lung, spleen, blood) in an FDA-accepted cancer-predisposed mouse model: Tg.rasH2 (Saitoh et al. Oncogene 1990. PMID 2202951). This mouse contains ˜3 tandem copies of human HRAS with an activating enhancer mutation to boost expression on one hemizygous allele. These mice are predisposed to splenic angiosarcomas and lung adenocarcinomas, and are routinely used for 6 month carcinogenicity studies to substitute for 2 year wild-type animal studies. Tumors found in the mice have usually acquired activating mutations in one copy of the human HRAS protooncogene. Thus, the human HRAS transgene serves a model target cancer driver gene in these animals. Sequence analysis and mutation detection was performed for 4 native mouse genes (Rho, Hp, Ctnnb1, Polr1c), along with the native mouse Hras, Kras, Nras and human HRAS transgene.
# (§2) In this example, Tg.rasH2 mice (n=5/group) were dosed with vehicle or a model mutation-inducing agent (e.g., a carcinogenic dose of urethane) (day 1,3,5) and sacrificed on day 29 for mutation detection by Duplex Sequencing in target tissues (lung, spleen) and whole blood. Target endogenous genes (Rho, Hp, Ctnnb1, Polr1c) and the native mouse Hras and human HRAS (trans)genes were also sequenced.
# [2] = tested on: human HRAS transgene; assay: Duplex Sequencing detection of clonally expanded cancer driver mutations after urethane dosing; assay type: in vivo, mouse
# Description: as §1, §2
structure (smiles),measurement,setting,value
CCOC(N)=O [urethane],mutation induction in peripheral blood,[1]; compared with spleen,closely mirrored that seen in the spleen
same,triplet mutation spectrum,[1]; distinguishable from the vehicle control,strong propensity for T→A and T→C mutations within the context of “NTG”
same,tissue-specific variations in the extent of mutation induction,"[1]; lung, spleen, blood",lung being observed to be more mutation prone than spleen and blood
same,treated spleen samples with mutations in human HRAS codon 61,"[2]; Tg.rasH2 mice, day 29, spleen, one at the same position, one on an adjoining base pair",two
same,urethane treated lung samples with the human HRAS codon 61 T>A mutation,"[2]; Tg.rasH2 mice, n=5/group, day 29, lung",4/5
same,urethane-treated splenic samples with T>A transversion at the human oncogenic HRAS codon 61 hotspot,"[2]; Tg.rasH2 mice, n=5/group, spleen",1/5
same,doubling time of the selected clone cells,"[2]; by calculation, 29 days, assuming no cell death",~1.8 days
same,variant allele frequencies of the codon 61 mutation in exon 3 of human HRAS,"[2]; urethane treated lung samples, Tg.rasH2 mice, day 29, T→A transversions in the context CTG",0.1%-1.8
same,cells encompassed by the highest allele fraction clone,[2]; within the 29 days of the study,"more than 90,000 cells"
